Assay [1] has as its target T1, Short transient receptor potential channel 4 (Mus musculus, UniProt Q9QUQ5).
T1 sequence (Q9QUQ5 whole entry): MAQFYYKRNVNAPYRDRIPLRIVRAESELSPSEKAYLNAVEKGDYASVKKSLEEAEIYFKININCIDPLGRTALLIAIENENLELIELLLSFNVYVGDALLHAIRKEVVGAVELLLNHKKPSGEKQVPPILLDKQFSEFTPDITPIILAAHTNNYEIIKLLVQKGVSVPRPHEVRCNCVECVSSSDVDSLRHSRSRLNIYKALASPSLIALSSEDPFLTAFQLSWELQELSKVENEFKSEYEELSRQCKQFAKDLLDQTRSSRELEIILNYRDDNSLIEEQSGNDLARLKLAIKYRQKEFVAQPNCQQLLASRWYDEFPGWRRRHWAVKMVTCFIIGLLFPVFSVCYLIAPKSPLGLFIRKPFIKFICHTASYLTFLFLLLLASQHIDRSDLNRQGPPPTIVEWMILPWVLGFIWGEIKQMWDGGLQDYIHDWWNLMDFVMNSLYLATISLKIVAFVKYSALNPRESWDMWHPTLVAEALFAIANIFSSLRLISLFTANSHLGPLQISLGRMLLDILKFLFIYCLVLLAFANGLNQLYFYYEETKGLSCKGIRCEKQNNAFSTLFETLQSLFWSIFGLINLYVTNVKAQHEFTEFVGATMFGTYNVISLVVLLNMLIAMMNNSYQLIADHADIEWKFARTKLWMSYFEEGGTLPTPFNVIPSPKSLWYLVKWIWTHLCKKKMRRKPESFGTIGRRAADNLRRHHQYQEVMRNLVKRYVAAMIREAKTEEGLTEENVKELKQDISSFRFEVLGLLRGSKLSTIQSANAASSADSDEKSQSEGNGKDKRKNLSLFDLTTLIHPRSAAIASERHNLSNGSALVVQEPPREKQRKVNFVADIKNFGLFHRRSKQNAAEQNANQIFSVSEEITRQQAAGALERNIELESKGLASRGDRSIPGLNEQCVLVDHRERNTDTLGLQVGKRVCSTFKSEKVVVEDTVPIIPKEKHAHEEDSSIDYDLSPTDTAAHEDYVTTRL
Kind of assay: calcium entry via TRPC4 opening agents – cell-based, HEK293 TRPC4/mu-opioid, Fluo-4 calcium, dose response (AID 434937). The assay is classed as functional.

Assay [2] addresses 5-hydroxytryptamine receptor 5A (Homo sapiens, UniProt P47898). Kind of assay: Counterscreen for agonists of OPRM1-OPRD1 heterodimerization: luminescence-based cell-based high throughput dose response assay to identify agonists of 5-hydroxytryptamine (serotonin) 5A receptor (HTR5A). [Related pubchem assays (depositor defined):AID504326, AID504355, AID504692, AID504904, AID504905]. It counts as functional. In general terms: Counterscreens check selectivity or assay interference.

In assay [3] the target is Delta-type opioid receptor (Homo sapiens, UniProt P41143). Kind of assay: Counterscreen for agonists of heterodimerization of the mu 1 (OPRM1) and delta 1 (OPRD1) opioid receptors: Luminescence-based cell-based high throughput dose response assay to identify agonists of OPRD1 homodimerization. [Related pubchem assays (depositor defined):AID504326, AID504355, AID504692, AID504904, AID504905]. The assay is classed as functional.
Delta-type opioid receptor, sequence (P41143 whole entry): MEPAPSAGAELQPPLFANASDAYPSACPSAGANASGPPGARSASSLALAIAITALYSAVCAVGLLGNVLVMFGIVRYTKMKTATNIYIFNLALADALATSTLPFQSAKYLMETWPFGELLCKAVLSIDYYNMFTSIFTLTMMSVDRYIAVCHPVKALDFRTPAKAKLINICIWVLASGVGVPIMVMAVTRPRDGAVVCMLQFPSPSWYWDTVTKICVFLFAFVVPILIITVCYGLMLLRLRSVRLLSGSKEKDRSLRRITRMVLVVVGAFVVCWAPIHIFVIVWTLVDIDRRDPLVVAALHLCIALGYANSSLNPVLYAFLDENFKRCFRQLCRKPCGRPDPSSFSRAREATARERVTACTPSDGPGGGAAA

The target in another assay is Mu-type opioid receptor (Homo sapiens, UniProt P35372). Kind of assay: Counterscreen for agonists of heterodimerization of the mu 1 (OPRM1) and delta 1 (OPRD1) opioid receptors: Luminescence-based cell-based high throughput dose response assay to identify agonists of OPRM1 homodimerization. It counts as functional.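 Note: U2OS cells expressing OPRM1 and beta-arrestin as split beta-galactosidase partners.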
Mu-type opioid receptor, sequence (P35372 whole entry): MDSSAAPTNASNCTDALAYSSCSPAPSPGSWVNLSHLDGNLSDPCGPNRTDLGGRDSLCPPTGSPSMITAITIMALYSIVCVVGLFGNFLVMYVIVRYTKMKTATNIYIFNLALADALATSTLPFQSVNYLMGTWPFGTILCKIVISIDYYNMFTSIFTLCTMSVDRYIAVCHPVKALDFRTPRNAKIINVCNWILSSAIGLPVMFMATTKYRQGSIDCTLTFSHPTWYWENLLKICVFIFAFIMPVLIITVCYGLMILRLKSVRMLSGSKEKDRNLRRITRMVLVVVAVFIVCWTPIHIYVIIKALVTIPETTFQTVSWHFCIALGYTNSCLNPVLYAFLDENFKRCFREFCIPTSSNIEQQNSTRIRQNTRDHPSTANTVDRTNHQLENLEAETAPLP
The target in the next assay is Genome polyprotein (dengue virus type 2, UniProt P29990). Kind of assay: flavivirus cap methylation enzyme inhibition – biochemical, confirmation dose response, primary screen (AID 588689). The assay is classed as functional.
Genome polyprotein, sequence (P29990 2492-3391 limits assumed): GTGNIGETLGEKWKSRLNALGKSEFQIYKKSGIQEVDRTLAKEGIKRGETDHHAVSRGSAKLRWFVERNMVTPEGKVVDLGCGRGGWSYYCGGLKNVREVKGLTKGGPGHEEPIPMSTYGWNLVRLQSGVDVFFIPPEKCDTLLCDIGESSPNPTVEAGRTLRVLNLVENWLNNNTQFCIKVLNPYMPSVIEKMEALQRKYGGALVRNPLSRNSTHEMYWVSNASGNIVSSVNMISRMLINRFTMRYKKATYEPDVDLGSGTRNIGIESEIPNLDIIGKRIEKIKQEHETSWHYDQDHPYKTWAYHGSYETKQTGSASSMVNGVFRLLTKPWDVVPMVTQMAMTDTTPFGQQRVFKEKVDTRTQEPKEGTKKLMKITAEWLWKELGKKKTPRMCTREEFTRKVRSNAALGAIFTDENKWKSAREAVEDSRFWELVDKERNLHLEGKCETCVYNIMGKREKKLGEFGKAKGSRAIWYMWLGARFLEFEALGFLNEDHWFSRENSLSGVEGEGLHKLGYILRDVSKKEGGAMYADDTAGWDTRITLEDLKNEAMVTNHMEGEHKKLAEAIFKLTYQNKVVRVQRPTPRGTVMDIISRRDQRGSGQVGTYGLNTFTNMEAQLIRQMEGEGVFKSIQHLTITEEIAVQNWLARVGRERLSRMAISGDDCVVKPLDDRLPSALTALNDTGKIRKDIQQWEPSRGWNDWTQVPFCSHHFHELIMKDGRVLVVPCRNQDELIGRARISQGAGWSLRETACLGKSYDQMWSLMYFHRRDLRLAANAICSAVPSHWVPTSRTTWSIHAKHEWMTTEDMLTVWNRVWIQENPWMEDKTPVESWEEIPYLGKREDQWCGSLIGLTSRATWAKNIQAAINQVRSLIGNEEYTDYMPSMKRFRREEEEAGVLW
Assay [4] concerns Vero. Kind of assay: cells. The settings on record: Chlorocebus sabaeus. It counts as functional.
Assay [5] has as its system Vero. Kind of assay: viability of Vero cells under compound – cytotoxicity control for flavivirus capping enzyme inhibitors (AID 588742). The assay is classed as functional. The settings on record: Chlorocebus sabaeus.
For the next assay, the target named is Beta-arrestin-1 (Homo sapiens, UniProt P49407). Kind of assay: beta-arrestin/AP2 interaction blockers, potency – biochemical, cherry pick 1, beta2-adaptin appendage, flow cytometry, dose response (AID 588783). The assay is classed as functional. A general note: A flow cytometer gives signals particle by particle.
Beta-arrestin-1, sequence (P49407 whole entry): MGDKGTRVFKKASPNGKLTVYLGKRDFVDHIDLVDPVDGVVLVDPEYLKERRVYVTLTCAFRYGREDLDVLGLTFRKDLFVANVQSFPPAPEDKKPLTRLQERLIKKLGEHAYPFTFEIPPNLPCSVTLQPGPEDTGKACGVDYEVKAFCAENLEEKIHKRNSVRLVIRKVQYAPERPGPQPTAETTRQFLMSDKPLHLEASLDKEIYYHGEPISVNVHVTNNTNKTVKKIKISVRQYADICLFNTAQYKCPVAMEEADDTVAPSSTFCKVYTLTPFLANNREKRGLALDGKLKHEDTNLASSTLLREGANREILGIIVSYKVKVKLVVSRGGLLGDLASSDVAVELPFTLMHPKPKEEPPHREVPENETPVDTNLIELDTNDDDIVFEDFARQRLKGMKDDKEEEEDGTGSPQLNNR
Assay [6] deals with Glucose-6-phosphate 1-dehydrogenase (Homo sapiens, UniProt P11413). Kind of assay: inhibition of Homo sapiens G6PD, dose series – biochemical, fluorescence, selectivity assay for P. falciparum G6PD inhibitor project, dose response (AID 504792). It counts as functional.
Glucose-6-phosphate 1-dehydrogenase, sequence (P11413 whole entry): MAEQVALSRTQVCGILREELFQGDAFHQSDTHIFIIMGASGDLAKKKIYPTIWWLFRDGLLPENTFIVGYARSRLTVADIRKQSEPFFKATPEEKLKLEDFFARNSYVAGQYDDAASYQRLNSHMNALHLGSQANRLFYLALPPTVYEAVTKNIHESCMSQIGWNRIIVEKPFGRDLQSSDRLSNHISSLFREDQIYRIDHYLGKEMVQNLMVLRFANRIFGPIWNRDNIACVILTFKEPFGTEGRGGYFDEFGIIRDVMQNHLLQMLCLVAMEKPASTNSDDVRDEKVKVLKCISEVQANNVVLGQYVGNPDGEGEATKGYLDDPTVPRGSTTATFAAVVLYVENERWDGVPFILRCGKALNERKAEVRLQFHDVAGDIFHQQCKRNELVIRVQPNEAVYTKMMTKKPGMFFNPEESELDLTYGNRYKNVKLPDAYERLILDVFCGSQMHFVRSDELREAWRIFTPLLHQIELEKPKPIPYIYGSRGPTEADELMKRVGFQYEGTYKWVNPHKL
Assay [7] deals with Heat shock protein HSP 90-alpha (Homo sapiens, UniProt P07900). It counts as functional, organism-based.
Assay [8] addresses T2, Microphthalmia-associated transcription factor (Homo sapiens, UniProt O75030).
T2 sequence (O75030 whole entry): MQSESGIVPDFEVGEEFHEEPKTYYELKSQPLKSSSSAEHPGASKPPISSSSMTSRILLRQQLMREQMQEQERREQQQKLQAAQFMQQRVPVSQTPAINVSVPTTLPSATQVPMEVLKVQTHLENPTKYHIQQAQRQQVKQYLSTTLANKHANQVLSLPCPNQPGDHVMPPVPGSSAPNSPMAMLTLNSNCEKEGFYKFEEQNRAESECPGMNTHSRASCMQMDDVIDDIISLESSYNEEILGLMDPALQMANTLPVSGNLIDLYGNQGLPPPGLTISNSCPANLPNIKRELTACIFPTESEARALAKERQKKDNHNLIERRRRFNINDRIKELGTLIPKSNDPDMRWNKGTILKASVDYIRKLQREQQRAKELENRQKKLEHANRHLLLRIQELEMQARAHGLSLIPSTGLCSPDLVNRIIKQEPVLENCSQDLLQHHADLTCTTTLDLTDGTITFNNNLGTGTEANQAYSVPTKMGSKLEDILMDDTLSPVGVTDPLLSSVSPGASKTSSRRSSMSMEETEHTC
Kind of assay: reducers of TRPM1 reporter luminescence, concentration series – cell-based, SK-MEL-5, cherry-picked, set 3, MITF inhibitor project, dose response (AID 493073).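 Note: SK-MEL-5 melanoma cells with luciferase driven by the MITF target TRPM1 promoter.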 It counts as functional.

Assay [9] can be described thus: viability of PTEN-deleted HCT116 cells – cell-based, HCT116 PTEN knockout, dose response (AID 1047).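 Note: HCT116 colon tumor cells with PTEN knocked out; cells exposed to compound for 60 hours before readout; potency for loss of cell viability measured by luminescence.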 It counts as functional.
For a further assay, the target named is Protein Wnt-3a (Mus musculus, UniProt P27467). Kind of assay: antagonism of Wnt3a pathway luciferase reporter – Wnt-LIGHT cells, luminescence, selectivity assay for Gli-SUFU antagonist project, dose response (AID 651570).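 Note: Wnt-LIGHT reporter cells stimulated with conditioned medium from Wnt3a-producing cells.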 The assay is classed as functional. Conditions: read-out: IC50_Mean.
Protein Wnt-3a, sequence (P27467 whole entry): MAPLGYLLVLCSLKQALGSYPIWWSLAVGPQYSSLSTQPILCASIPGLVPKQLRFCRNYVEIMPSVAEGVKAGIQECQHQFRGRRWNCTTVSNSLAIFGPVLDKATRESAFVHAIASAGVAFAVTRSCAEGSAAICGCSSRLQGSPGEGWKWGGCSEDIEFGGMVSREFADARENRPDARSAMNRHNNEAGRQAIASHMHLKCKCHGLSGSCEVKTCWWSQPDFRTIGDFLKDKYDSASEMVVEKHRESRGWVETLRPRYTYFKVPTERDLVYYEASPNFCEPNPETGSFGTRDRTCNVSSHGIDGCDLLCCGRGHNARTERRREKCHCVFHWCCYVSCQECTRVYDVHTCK
Another assay deals with A-375. Kind of assay: proliferation inhibition in MITF-low A375 cells – cell-based, cherry-pick samples, set 2, counter-screen for MITF modulator project, dose response (AID 540335). The settings on record: Homo sapiens. It counts as functional.
Assay [10] is described as follows: viability of HCT116 lacking mutant beta-catenin – cell-based, human colon tumor, dose response (AID 1045).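 Note: HCT116 colon tumor cells with beta catenin knocked out; cells exposed to compound for 60 hours.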 The assay is classed as functional.
Assay [11] can be described thus: luciferase reporter signal suppression in cells – H4 neuroglioma cells, luminescence, dose response (AID 1990). It counts as functional, cell-based. On the technique in general: Reporter assays use an easily measured gene product as a stand-in for the process of interest.
Assay [12] has as its system BJ. Kind of assay: BJ-TERT-LT-ST fibroblast viability loss – cell-based, RAS-independent, luminescence, dose response (AID 1935).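 Note: BJ fibroblasts immortalized with TERT plus LT and ST oncogenes.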 The assay is classed as functional. The settings on record: Homo sapiens.
The nature of assay [13]: Luminescence Cell-Based Dose Response HTS to Identify Inhibitors of 5'UTR Stem-Loop Driven Prion Protein mRNA Translation in H4 Neuroglioblastoma Cells. [Related pubchem assays: 1827 (Project Summary), 1813 (Primary HTS)]. It counts as functional.
Assay [14] relates to BJ. Kind of assay: cells. It counts as functional, cell-based. Conditions: Homo sapiens.
In assay [15] the test system is BJ. Kind of assay: BJ-TERT fibroblast viability loss – cell-based, RAS-independent, luminescence, dose response (AID 1933). It counts as functional. The settings on record: Homo sapiens.
The test system of assay [16] is BJ. Kind of assay: growth inhibition of engineered Ras-driven BJ cells – cell-based, alamar blue fluorescence, cherrypicked samples, dose response (AID 2631).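 Note: confirmatory dose-response assay in RAS-dependent BJ fibroblasts engineered with TERT, LT and ST, with cytotoxicity read by fluorescence.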 It counts as functional. The settings on record: Homo sapiens.
A short description of assay [17]: alpha-synuclein stem-loop luciferase translation blockers – H4 neuroglioma cells, luminescence, confirmation (AID 1988). It counts as functional, cell-based.
Assay [18] is described as follows: DRD fibroblast viability loss – cell-based, non-viral oncogenic, luminescence, dose response (AID 1934). The assay is classed as functional. The settings on record: Homo sapiens.

Active and inactive are the calls of the source. Bounds are passed on as bounds.

5-hydroxytryptamine receptor 5A, sequence (P47898 whole entry): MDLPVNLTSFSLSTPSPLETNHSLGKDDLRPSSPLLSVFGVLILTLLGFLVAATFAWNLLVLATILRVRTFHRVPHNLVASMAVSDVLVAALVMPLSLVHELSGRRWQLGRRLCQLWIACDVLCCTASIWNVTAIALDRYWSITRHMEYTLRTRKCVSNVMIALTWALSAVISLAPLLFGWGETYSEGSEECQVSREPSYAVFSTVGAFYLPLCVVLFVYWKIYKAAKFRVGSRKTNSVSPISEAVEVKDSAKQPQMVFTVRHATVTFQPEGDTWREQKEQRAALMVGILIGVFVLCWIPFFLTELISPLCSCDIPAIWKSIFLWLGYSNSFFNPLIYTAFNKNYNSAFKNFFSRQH

`COc1ccc(C(CNC(=O)C(Cc2ccccc2)NC(N)=O)N(C)C)cc1` (stereo not drawn): the concentration giving a half-maximal response (EC50) (commonly the concentration that produces a half-maximal response) is 0.473 µM (active) in assay [1], > 92.5 µM (inactive) in [2], > 92.5 µM (inactive) in [3] and > 92.5 µM (inactive) on Mu-type opioid receptor.
In the case of `Cn1c2ccccc2c2ccc3c(c21)C(=O)C=CC3=O`, the IC50 is 15.8 µM (active) on Genome polyprotein, 4.59 µM (active) on Beta-arrestin-1 and > 80 µM (inactive) in assay [6]. For the same compound, the cytotoxic concentration (CC50) (in general, the concentration at which the toxic effect on the cells reaches its halfway point) was 12.6 µM (active) with Vero [4] and 29.2 µM (active) with Vero [5]. Also, in assay [7], the AC50 (commonly the concentration giving half of the maximal activity seen) is 8.99 µM (active).
On to `CCn1c(/C=C/Nc2ccccc2)[n+](CC)c2cc(Cl)c(Cl)cc21`, for which the AC50 is 14.5 µM (active) in assay [8] and 34.8 µM (active) in the assay on A-375. For the same compound, the EC50 was 2.4 µM (active) in [9] and 1.68 µM (active) in [10]. For the same compound, at Protein Wnt-3a, the IC50 is 7.29 µM (active).
Turning to `Cc1ccnc(NC(=O)c2ccccc2NC(=O)c2ccc(Cl)cc2Cl)c1`, the EC50 in assay [11] is 10.6 µM (inconclusive); with BJ [12], 4.38 µM (active); in assay [13] it was > 120 µM (not active); with BJ [14], 34.8 µM (inconclusive); with BJ [15], 2.87 µM (active); in the assay with BJ [16], 0.573 µM (active). The EC50 in assay [17] is > 120 µM (not active); in assay [18], 2.83 µM (active).
